Results published in patent publication US20030119895A1, “Methods using a combination of a 3-heteroaryl-2-indolinone and a cyclooxygenase-2 inhibitor for the treatment of neoplasia” (Pharmacia Corporation, priority 1998, published 2003).
Where “and” joins values, the source holds several entries; their conditions need not be identical. Identical values can stand only once.

Experiments:
FGFR = experiment: FGF ligand-induced BrdU incorporation, mitogenesis in 3T3/EGFR cells; assay type: cell-based
[1] = test system: HUV-EC-C cells (human umbilical vein endothelial cells); experiment: HUV-EC-C Assay, VEGF-stimulated [3H] thymidine incorporation; assay type: cell-based; conditions: Mitogenesis in Endothelial Cells
[2] = test system: HUV-EC-C cells (human umbilical vein endothelial cells); experiment: HUV-EC-C Assay, a-FGF (ECGF)-stimulated [3H] thymidine incorporation; assay type: cell-based; conditions: Mitogenesis in Endothelial Cells
Experimental: The following protocol may also be used to measure the composition's activity:
1. […] After cells have detached from the flask, add an equal volume of assay medium and transfer to a 50 ml sterile centrifuge tube (Fisher Scientific; catalogue no. 05-539-6).
2. Wash the cells with about 35 ml assay medium in the 50 ml sterile centrifuge, tube by adding the assay medium, centrifuge for 10 minutes at approximately 200× g, aspirate the supernatant, and resuspend with 35 ml D-PBS. Repeat the wash two more times with D-PBS, resuspend the cells in about 1 ml assay medium/15 cm^2 of tissue culture flask. Assay medium consists of F12K medium (Gibco BRL; catalogue no. 21127-014)+0.5% heat-inactivated fetal bovine serum. Count the cells with a Coulter Counter.RTM.v Coulter Electronics, Inc.) and add assay medium to the cells to obtain a concentration of 0.8-1.0×10^5 cells/ml.
3. Add cells to 96-well flat-bottom plates at 100 μl/well or 0.8-1.0×10^4 cells/well; incubate about 24 h at 37° C., 5% CO2.
1. Make up two-fold drug titrations in separate 96-well plates, generally 50 μM on down to 0 μM. Use the same assay medium as mentioned in day 0, step 2 above. Titrations are made by adding […] of drug at 200 μM (4× the final well concentration) to the top well of a particular plate column. Since the stock drug concentration is usually 20 mM in DMSO, the 200 μM drug concentration contains 2% DMSO. Therefore, diluent made up to 2% DMSO in assay medium (F12K+0.5% fetal bovine serum) is used as diluent for the drug titrations in order to dilute the drug but keep the DMSO concentration constant. Add this diluent to the remaining wells in the column at 60 μl/well. Take 60 μl from the 120 μl of 200 μM drug dilution in the top well of the column and mix with the 60 μl in the second well of the column. Take 60 μl from this well and mix with the 60 μl in the third well of the column, and so on until two-fold titrations are completed. When the next-to-the-last well is mixed, take 60 μl of the 120 μl in this well and discard it. Leave the last well with 60 μl of DMSO/media diluent as a non-drug-containing control. Make 9 columns of titrated drug, enough for triplicate wells each for 1) VEGF (obtained from Pepro Tech Inc., catalogue no. 100-200, 2) endothelial cell growth factor (ECGF) (also known as acidic fibroblast growth factor, or aFGF) (obtained from Boehringer Mannheim Biochemica, catalogue no. 1439 600), and assay media control. ECGF comes as a preparation with sodium heparin.
2. Transfer 50 μl/well of the drug dilutions to the 96-well assay plates containing the 0.8-1.0×10^4 cells/100 μl/well of the HUV-EC-C cells from day 0 and […] incubate ~2 h at 37° C., 5% CO2.
3. In triplicate, add 50 μl/well of 80 ng/ml VEGF, 20 ng/ml ECGF, or media control to each drug condition. As with the drugs, the growth factor concentrations are 4× the desired final concentration. Use the assay media from day 0 step 2 to make the concentrations of growth factors. Incubate approximately 24 hours at 37° C., 5% CO2. Each well will have 50 μl drug dilution, 50 μl growth factor or media, and 100 ul cells,=200 ul/well total. Thus the 4× concentrations of drugs and growth factors become 1× once everything has been added to the wells.
1. Add ^3H-thymidine (Amersham; catalogue no. TRK-686) at 1 μCi/well (10 μl/well of 100 μCi/ml solution made up in RPMI media+10% heat-inactivated fetal bovine serum) and incubate about 24 h at 37° C., 5% CO2.
Note: ^3H-thymidine is made up in RPMI media because all of the other applications for which we use the ^3H-thymidine involve experiments done in RPMI. The media difference at this step is probably not significant. RPMI was obtained from Gibco BRL, catalogue no. 11875-051.
1. Freeze plates overnight at −20° C.
1. Thaw plates and harvest with a 96-well plate harvester (Tomtec Harvester 96.RTM.) onto filter mats (Wallac; catalogue no. 1205-401); read counts on a Wallac Betaplate™ liquid scintillation counter.

EpH4-VEGF = experiment: Xenograft Assay 2: FLK-1/Xenograft Model, subcutaneous xenograft (In Vivo Data, EpH4-VEGF); parameters: species or system mice
Experimental: Assay 2: FLK-1/Xenograft Model
The ability of the compounds of the present invention to inhibit ovarian, melanoma, prostate, lung and mammary tumor cell lines established as SC xenografts was examined. These studies were conducted using doses ranging from 1 to 75 mg/kg/day.
Materials And Methods. The tumor cells were implanted subcutaneously into the indicated strains of mice. Treatment was initiated on day 1 post implantation unless otherwise indicated (e.g. treatment of the SCID mouse related to the A375 melanoma cell line began on Day 9). Eight (8) to sixteen (16) mice comprised each test group.
Animals. Female athymic mice (BALB/c, nu/nu), BALB/c mice, Wistar rats and Fisher 344 rats were obtained from Simonsen Laboratories (Gilroy, Calif.). Female A/I mice were obtained from Jackson Laboratory (Bar Harbor, Me.). DA rats were obtained from B&K Universal, Inc. (Fremont, Calif.). Athymic R/Nu rats, DBA/2N mice, and BALB/c mice were obtained from Harlan Sprague Dawley (Indianapolis, Ind.). Female C57BU6 mice were obtained from Taconic (Germantown, N.Y.). All animals were maintained under clean-room conditions in Micro-isolator cages with Alpha-dri bedding. They received sterile rodent chow and water ad libitum.
All procedures were conducted in accordance with the NIH Guide for the Care and Use Of Laboratory Animals.
Subcutaneous Xenograft Model. Cell lines were grown in appropriate medium as described. Cells were harvested at or near confluency with 0.05% Trypsin-EDTA and pelleted at 450×g for 10 min. Pellets were resuspended in sterile PBS or media (without FBS) to a suitable concentration indicated in the Figure legends and the cells were implanted into the hindflank of mice. Tumor growth-was measured over 3 to 6 weeks using venier calipers and tumor volumes were calculated as a product of length x width x height unless otherwise indicated. P values were calculated using the Students' t-test.
Different concentrations of a compound in 50-100 μl excipient (dimethylsulfoxide, PBTE, PBTE6C:D5W, or PBTE:D5W) were delivered by IP injection.
Results for various compounds obtained from the above-described in vivo assays are set forth at Table 5, below: […]

Compound	IC50 (FGFR) [µM]	IC50 ([1]; Homo sapiens, HUVEC) [µM]	IC50 ([2]; Homo sapiens, HUVEC) [µM]	also measured
CCOC(=O)CCc1c(C=C2C(=O)Nc3ccccc32)[nH]c(C(=O)OCC)c1CC(=O)OCC [SU5465, 3-[(5-Ethoxycarbonyl-3-ethoxycarbonylethyl-4-ethoxylcarbonylmethylpyrrol-2-yl)methylene]-2-indolinone]	25			
Cc1c(CCC(=O)O)c[nH]c1C=C1C(=O)Nc2ccccc21 [SU5402, 3-[(3-(2-carboxyethyl)-4-methylpyrrol-5-yl)methylene]-2-indolinone]	40	< 0.8	2	
O=C1Nc2ccccc2C1=Cc1ccc(Br)cc1 [SU4942, 3-(4-Bromobenzylidenyl)-2-indolinone]				IC50 [2]: 4.6 µM; EpH4-VEGF % inhibition @ mg/kg (EpH4-VEGF; @ 25 mg/kg): 47% @ 25; EpH4-VEGF % inhibition @ mg/kg (EpH4-VEGF; @ 50 mg/kg): 46% @ 50
O=C1Nc2ccccc2C1=Cc1ccc(N2CCCC2)cc1 [SU5466, 3-[4-(Pyrrolidin-1-yl)benzylidenyl]-2-indolinone]	15	1.3	3.2	
O=C1Nc2ccccc2C1=Cc1ccc(N2CCOCC2)cc1 [SU4981, 3-[4-(Morpholin-4-yl)benzylidenyl]-2-indolinone]	10	0.6		
O=C1Nc2ccccc2C1=Cc1ccc(O)cc1Cl [SU4932, 3-(2-chloro-4-hydroxybenzylidenyl)-2-indolinone]		2.5	45.2	EpH4-VEGF % inhibition @ mg/kg (EpH4-VEGF; @ 75 mg/kg): 42% @ 75; EpH4-VEGF % inhibition @ mg/kg (EpH4-VEGF; @ 50/50 mg/kg): 42% @ 50/50
COC(=O)CCc1c(C)c[nH]c1C=C1C(=O)Nc2ccccc21 [SU5407, 3-{[4-(2-methoxycarbonylethyl)-3-methylpyrrol-5-yl]methylene}-2-indolinone]	70	39.8	35.5	
CN(C)c1ccc(C=C2C(=O)Nc3ccc(Cl)cc32)cc1 [SU4967, 5-Chloro-3-(4-dimethylaminobenzylidenyl)-2-indolinone]	4.9	34.3	16.3	
Cc1cnc(C=C2C(=O)Nc3ccccc32)s1 [SU5469, 3-[(5-Methylthiazol-2-yl)methylene]-2-indolinone]	15			
Cc1cc[nH]c1C=C1C(=O)Nc2ccccc21 [SU5404, 3-[(3-Methylpyrrol-2-yl)methylene]-2-indolinone]	25	< 0.8	31.1	
O=C1Nc2ccccc2C1=Cc1c(Br)cnn1Cc1ccc(Cl)cc1 [SU5475, 3-[(4-Bromo-1-(4-chlorobenzyl)pyrazol-5-yl)methylene]-2-indolinone]	9			
COc1ccc(Br)cc1C=C1C(=O)Nc2ccccc21 [SU4796, 3-(3-bromo-6-methoxybenzylidenyl)-2-indolinone]				IC50 [1]: 30.7 µM; IC50 [2]: 35.8 µM
CCOC(=O)c1c(C)[nH]c(C=C2C(=O)Nc3ccccc32)c1C [SU5408, 3-[(2,4-Dimethyl-3-ethoxycarbonylpyrrol-5-yl)methylene]-2-indolinone]		< 0.8	22.7	
O=C1Nc2ccccc2C1=Cc1cccn1-c1ccc(Cl)cc1 [SU5462]				IC50 [1]: 0.5 µM; IC50 [2]: 0.8 µM
Cc1cnc(C=C2C(=O)Nc3ccccc32)[nH]1 [SU5468, 3-[(5-Methylimidazol-2-yl)methylene]-2-indolinone]		0.54	8.7	
O=C1Nc2ccccc2C1=Cc1c[nH]cn1 [SU5473, 3-[(Imidazol-4-yl)methylene]-2-indolinone]	50			
CCc1c(C)[nH]c(C=C2C(=O)Nc3ccccc32)c1C [SU5477, 3-[(4-Ethyl-3,5-dimethylpyrrol-2-yl)methylene]-2-indolinone]		0.05	37.8	
O=C1Nc2ccccc2C1=Cc1ccc(F)cc1 [SU5205, 3-(4-Fluorobenzylidenyl)-2-indolinone]		5.1	11.8	
Cn1cccc1C=C1C(=O)Nc2ccccc21 [SU5464, 3-[(1-Methylpyrrol-2-yl)methylene]-2-indolinone]		3.8	12.9	
CN(C)c1ccc(C=C2C(=O)N(C)c3ccccc32)cc1 [SU4952, 3-(4-Dimethylaminobenzylidenyl)-1-methyl-2-indolinone]		25.6	19.3	
CN(C)c1c(C=C2C(=O)Nc3ccccc32)cc(C=C2C(=O)Nc3ccccc32)c(N(C)C)c1C#N [SU5218, 2,6-Di-(dimethylamino)-3,5-di-[(indolin-2-one-3-ylidenyl)methyl]-phenylcyanide]		2.4	2.7	
Cc1ccc(C=C2C(=O)Nc3ccccc32)s1 [SU5424, 3-[(2-Methylthien-5-yl)methylene]-2-indolinone]		2.5		EpH4-VEGF % inhibition @ mg/kg (EpH4-VEGF; @ 50 mg/kg): 45% @ 50 and 65% @ 50
CCc1ccc(C=C2C(=O)Nc3ccccc32)s1 [SU5451, 3-[(2-Ethylthien-5-yl)methylene]-2-indolinone]		1.2	30	
